# Data as given in patent US20260308102A1, “18F-FLUORINATED FATTY ACIDS AND USES THEREOF” (Ratio Therapeutics, Inc., priority 2022, published 2026).
# Entries after “also recorded” stand apart in the source; their conditions may differ.
# Experiments:
# [1] = Static μPET/CT imaging at 45 min p.i. of short chain 18F-fatty acids and esters (Example 1)
# Description: FIG. 1 is a series of Static Sagital and Coronal Maximum Intensity Projections (MIPs) μPET/CT images obtained at 45 minutes p.i. for the compounds studied (excluding palmitate) in normally fed animals. Imaging with ethyl-protected intermediates are also shown (e-).
# Wild type immunocompetent animals were used, both for imaging and biodistribution experiments.
# The activity was administered to the awake animals (n=2) via tail-vein injection (9.25-18.5 MBq, or 250-500 μCi) and placed back into their cages. At 35 minutes post injection (p.i.), animals were place in an acrylic enclosure under 4% isoflurane anesthesia in O2 for initial knockdown, then reduced to 2.5%. Once asleep, animals were placed in the imaging holder and a 5-minute CT was followed by a 15-minute static PET (approx. 45-60 min p.i., or 10-15 min after completion of anesthesia). As before, animals were allowed to recover from the anesthesia before returning to the holding facility for decay. When warranted, animals were studied with regular feeding and fasting for 6-12 hours to evaluate any difference in biodistribution.
# [2] = Dynamic PET imaging (60 min) of butyrate analogues (Example 1); format: in vivo, wild type mice; conditions: for in vivo behavior / biodistribution, comparison of isomers: 4-[^18F]FB vs 2-[^18F]FB
# Description: FIG. 10 is a series of dynamic μPET/CT images depicting the biodistribution of 2-[^18F]FB and 4-[^18F]FB in wild type mice. Stable biodistribution was achieved after 45 minutes p.i.
# Animals were anesthetized under 3% isoflurane in 02. […] Animals were allowed to recover from anesthesia and were carefully observed before moving them back to the holding facility for decay. Data was reconstructed as five 12-minute frames and as twelve 5-minute frames for analysis.
# [3] = Static μPET/CT imaging at 45 min p.i. of medium and long chain 18F-fatty acids (Example 2); conditions: for brain uptake: includes earlier short chain data; for defluorination (bone uptake) / metabolic rate: static PET
# Description: All animal experiments were approved by the Albert Einstein College of Medicine IACUC. Wild type immunocompetent animals were used for imaging. Feeding and water conditions were maintained throughout the study. Animals were never fasted.
# The agent was administered to awake animals via tail-vein injection (9.25-18.5 MBq, or 250-500 μCi, n=2) and placed back into their cages. At 40 minutes post injection (henceforth p.i.), animals were place in an acrylic enclosure under 4% isoflurane anesthesia in O2 for initial knockdown, then reduced to 2.5%. Once asleep, animals were placed in the imaging holder and a 5-minute CT followed by a 15-minute static PET were performed (Approx. 45-60 min p.i.). As before, animals were allowed to recover from the anesthesia before returning to the holding facility for radiotracer decay. Images were analyzed by drawing regions of interest (ROIs) and quantifying the amount of tracer present as percent of injected activity per cubic centimeter (% IA/cc). Blood, urinary bladder and gut activity were determined by computer drawing of 2 mm diameter ROI spheres in the left cardiac ventricle, the urinary bladder and the areas of specific gut uptake, respectively. Brain, liver and kidney ROIs were drawn CT-aided and the radioactive contents were later quantified.
# [4] = system: MCT1; conditions: in vitro, Van Hée et al.; cited from earlier work
# [5] = system: monocarboxylate transporter (MCT); assay: PET imaging of 2-[^18F]FP with lactate displacement and MCT inhibition by AZD-3965 co-injection; format: in vivo, wild type mice
# From the text: FIG. 2 is a graph depicting PET-derived quantification of brain and pancreatic (“gut”) uptake of 2-[^18F]FP and 2-(L)-[^18F]FP under different conditions (n=2).
# FIG. 12 is a collection of dynamic μPET/CT images that compare different imaging conditions including blocking with the MCT1 blocker AZD3965.
# Further experiments to test the possibility of using 2-[^18F]FP and 2-(L)-[^18F]FP as a lactate surrogate, including co-injection with (L)Lactate, (D)Lactate, and AZD-3965 to produce displacement and monocarboxylate transporter (MCT) inhibition (respectively) were conducted and results can be observed in FIG. 2. The corresponding μPET/CT images can be found in the FIG. 12.
# The unique characteristics of 2-[^18F]FP open many possibilities to study cancers and brain/CNS function and metabolism. As with 2-[^18F]FB the enantiomers have not been separated for either production or quality control. However, parametric production of 2-(L)-[^18F]FP was possible since the ethyl(2R)-2-{[(4-methylphenyl) sulfonyl]oxy}propanoate is commercially available. This compound's ability to resemble (L)-lactate has been contested in vitro, with confounding in vivo results. For comparison we co-injected 2-[^18F]FP separately with 0.5 and 5 mg/kg (L) and (D) sodium lactate (an increase of 5 and 50% respectively in homeostatic lactate circulation), and 5 mg/Kg of AZD-3965, an monocarboxylate transporter (MCT) 1 and 2 inhibitor (Ki(MCT1)=3 nM, Ki(MCT2)=20 nM) in the same animal model.
# [6] = Stability in HCl and saline solution; format: physicochemical; conditions: for stability in HCl: HCl lower than 3 M
# [7] = target: MCT2; conditions: role: inhibitor; cited from earlier work
# [8] = target: MCT1; conditions: role: inhibitor; cited from earlier work
# [9] = cancer patients; cited from earlier work
# [10] = co-injection with AZD-3965, 5 mg/Kg
compound,measurement,setting,value
"CCC([18F])C(=O)O (racemic) [2-[^18F]FB, 2-[^18F]Fluorobutyrate]","brain uptake, fasted vs fed","[1]; fasted vs fed, 45 min p.i.",small reduction in brain uptake (not significant)
same,"circulatory activity, fasted vs fed","[1]; fasted vs fed, 45 min p.i.",slight increase in circulatory activity
same,"gut uptake, fasted vs fed","[1]; fasted vs fed, 45 min p.i.",modest reduction; also recorded: reduction in the aforementioned specifically located gut uptake
same,"metabolic activity / defluorination, fasted vs fed","[1]; fasted vs fed, 45 min p.i.",reduced defluorination; also recorded: slight decrease in metabolic rate
same,brain/CNS uptake,"[1]; static PET, 45 min p.i., fed",marked brain uptake
same,brain uptake with or without isoflurane anesthesia and fasting,"[1]; with or without isoflurane, with or without fasting","remained unchanged with or without isoflurane anesthesia, and with or without fasting"
same,brain/central nervous system (CNS) uptake,[2],the highest of the studied series
same,gut uptake,[2],seemingly specific gut uptake
same,"in vivo behavior / biodistribution, comparison of isomers",[2],behaved very differently in vivo
same,brain uptake,[3]; 45 min p.i.,High brain uptake
same,brain uptake,"[3]; 45 min p.i., listed as 2-[^18F]Fluorobutyrate",peaking
"CCCCC([18F])C(=O)O (racemic) [2-[^18F]FC, 2-Fluorocaproate]",specific abdominal uptake,[3]; 45 min p.i.,not found
same,brain uptake,[3]; 45 min p.i.,High brain uptake; also recorded: the longest substrate absorbed by the brain
same,defluorination (bone uptake),[3]; 45 min p.i.,Almost no defluorination
"CCCCCCC([18F])C(=O)O (racemic) [2-[^18F]FCy, 2-Fluorocaprylate]",specific abdominal uptake,[3]; 45 min p.i.,not found
same,brain uptake,[3]; 45 min p.i.,significantly reduced
same,defluorination (bone uptake),[3]; 45 min p.i.,Almost no defluorination
"CCCCCC([18F])C(=O)O (racemic) [2-[^18F]FE, 2-Fluoroenanthate]",specific abdominal uptake,[3]; 45 min p.i.,not found
same,brain uptake,[3]; 45 min p.i.,significantly reduced; also recorded: all brain uptake is stopped; also recorded: stops abruptly
same,defluorination (bone uptake),[3]; 45 min p.i.,small bone uptake
"CC([18F])C(=O)O (racemic) [2-[^18F]FP, 2-[^18F]Fluoropropionate]",MCT1-dependent accumulation,[4],does not accumulate in a MCT1-dependent manner
same,apparent stability in vivo,[1]; no metabolite analysis performed,seems to be stable in vivo in the studied period; also recorded: high apparent probe stability in vivo
same,blood circulation time,"[1]; static PET, 45 min p.i.",decreased circulation times
same,defluorination in vivo,"[1]; static PET, 45 min p.i.",only minor defluorination was observed; also recorded: no defluorination was observed
same,brain/CNS uptake,"[1]; static PET, 45 min p.i., fed",maintained CNS uptake; also recorded: specific uptake in brain and the central nervous system; also recorded: marked brain uptake
same,abdominal uptake under different imaging conditions,"[5]; different imaging conditions (fasting, lactate)",remained stable and not affected by the different imaging conditions
same,"average brain uptake, fasting or co-injection with (L)-lactate","[5]; fasting, co-injection with 5 mg/kg (L)-lactate, differences not significant",slight increase in average brain uptake
same,brain uptake,[3]; 45 min p.i.,High brain uptake
"CCCCCCCCCCCCCCC([18F])C(=O)O (racemic) [2-[^18F]FPalm, 2-[^18F]Fluorohexadecanoic acid]",blood content,[3]; 45 min p.i.,reduced
same,liver uptake,[3]; 45 min p.i.,predominant liver uptake
same,specific abdominal uptake,[3]; 45 min p.i.,not found
same,brain uptake,[3]; 45 min p.i.,significantly reduced
same,defluorination (bone uptake),[3]; 45 min p.i.,slightly higher defluorination rate
"CCCC([18F])C(=O)O (racemic) [2-[^18F]FV, 2-Fluorovalerate]",specific abdominal uptake,[3]; 45 min p.i.,evident
same,brain uptake,[3]; 45 min p.i.,High brain uptake
same,defluorination (bone uptake),[3]; 45 min p.i.,small bone uptake
"CC(C)([18F])C(=O)O [2-[^18F]FIB, 2-[^18F]Fluoroisobutyrate]",blood circulation time,"[1]; static PET, 45 min p.i.",long circulation time
same,defluorination in vivo,"[1]; static PET, 45 min p.i.",without defluorination
same,general biodistribution,"[1]; static PET, 45 min p.i.",non-specificity
same,brain/CNS uptake,"[1]; static PET, 45 min p.i., fed",marked brain uptake in contrast to their branched congener
"CC([18F])CC(=O)O (stereo not drawn) [3-[^18F]FB, 3-[^18F]Fluorobutyrate]",stability in HCl,[6],not stable
same,stability in saline solution,[6],decomposed immediately
"O=C(O)CC[18F] [3-[^18F]FP, 3-[^18F]Fluoropropionate]",stability in HCl,[6],not stable
same,stability in saline solution,[6],decomposed immediately
"O=C(O)CCC[18F] [4-[^18F]FB, 4-[^18F]Fluorobutyrate]","circulatory activity, fasted vs fed","[1]; fasted vs fed, 45 min p.i.",slight increase in circulatory activity
same,"metabolic activity / defluorination, fasted vs fed","[1]; fasted vs fed, 45 min p.i.",reduced defluorination; also recorded: reduction in metabolic activity was especially noticeable; also recorded: slight decrease in metabolic rate
same,"in vivo behavior / biodistribution, comparison of isomers",[2],behaved very differently in vivo
"O=C(O)CCCC[18F] [5-[^18F]FV, 5-Fluorovalerate]",metabolic rate,[3]; 45 min p.i.,much faster metabolic rate than that of 6-[^18F]FC and 8-[^18F]FCy
"O=C(O)CCCCCC[18F] [7-[^18F]FE, 7-Fluoroenanthate]",metabolic rate,[3]; 45 min p.i.,much faster metabolic rate than that of 6-[^18F]FC and 8-[^18F]FCy
"O=C(O)CCCCCCCCCCCCCCC[18F] [16-[^18F]FPalm, 16-[^18F]Fluorohexadecanoic acid]",bright spot in liver / autopsy finding,[3]; one animal,"a bright spot was found in one the animal's liver, but later autopsy did not revealed any interesting finding"
same,defluorination (bone uptake),[3]; 45 min p.i.,"faster for the 16-substituted compound, although much slower in contrast to its MCFA n-substituted congeners"
Cc1[nH]nc(C(F)(F)F)c1Cc1sc2c(c1C(=O)N1C[C@](C)(O)CO1)c(=O)n(C)c(=O)n2C(C)C [AZD-3965],Ki,[7],20 nM
same,blocking of gut uptake by AZD-3965,[5]; co-injection with AZD-3965,selectively blocked
same,blocking of uptake / biodistribution by AZD-3965,[5]; [10],blocked the overall biodistribution of 2-[^18F]FP; also recorded: significant blocking of fatty acid uptake
same,excretion with AZD-3965 co-injection,[5]; [10],almost complete excretion; also recorded: increased excretion
same,Ki,[8],3 nM
CC(=O)O [[^11C]Acetate],uptake in comparison with [^18F]FDG,[9],mutually exclusive
"O=C(O)C[18F] [[^18F]FA, [^18F]Fluoroacetate]",blood circulation time,"[1]; static PET, 45 min p.i.",decreased circulation times
same,brain/CNS uptake,"[1]; static PET, 45 min p.i., fed",maintained CNS uptake
same,specific gut uptake,"[1]; static PET, 45 min p.i., fed",highest uptake
same,brain uptake,[3]; 45 min p.i.,High brain uptake
"CCOC(=O)C([18F])CC (stereo not drawn) [e-2-[^18F]FB, Ethyl 2-[^18F]Fluorobutyrate]",blood circulation time,"[1]; static PET, 45 min p.i.",slightly longer blood circulation
same,general biodistribution,"[1]; static PET, 45 min p.i.",almost identical biodistribution
"CCOC(=O)CC(C)[18F] (stereo not drawn) [e-3-[^18F]FB, Ethyl 3-[^18F]Fluorobutyrate]",stability in HCl,[6],not stable
same,stability in saline solution,[6],decomposed immediately
"CCOC(=O)CC[18F] [e-3-[^18F]FP, Ethyl 3-[^18F]Fluoropropionate]",stability in HCl,[6],not stable
same,stability in saline solution,[6],decomposed immediately
"CCOC(=O)CCC[18F] [e-4-[^18F]FB, Ethyl 4-[^18F]Fluorobutyrate]",blood circulation time,"[1]; static PET, 45 min p.i.",slightly longer blood circulation
same,general biodistribution,"[1]; static PET, 45 min p.i.",almost identical biodistribution
